The record followed here is publication PMC8500922 (Structure (London, England : 1993), 2021).

The target in one assay is T1, ternary SpNatC (Schizosaccharomyces pombe, UniProt O74311+Q9USY3).
T1 sequence (O74311 1-150): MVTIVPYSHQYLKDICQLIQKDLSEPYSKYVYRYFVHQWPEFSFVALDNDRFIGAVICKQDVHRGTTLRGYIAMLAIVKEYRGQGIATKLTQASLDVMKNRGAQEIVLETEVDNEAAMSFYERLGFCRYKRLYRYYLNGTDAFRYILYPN
T1 sequence (Q9USY3 31-708): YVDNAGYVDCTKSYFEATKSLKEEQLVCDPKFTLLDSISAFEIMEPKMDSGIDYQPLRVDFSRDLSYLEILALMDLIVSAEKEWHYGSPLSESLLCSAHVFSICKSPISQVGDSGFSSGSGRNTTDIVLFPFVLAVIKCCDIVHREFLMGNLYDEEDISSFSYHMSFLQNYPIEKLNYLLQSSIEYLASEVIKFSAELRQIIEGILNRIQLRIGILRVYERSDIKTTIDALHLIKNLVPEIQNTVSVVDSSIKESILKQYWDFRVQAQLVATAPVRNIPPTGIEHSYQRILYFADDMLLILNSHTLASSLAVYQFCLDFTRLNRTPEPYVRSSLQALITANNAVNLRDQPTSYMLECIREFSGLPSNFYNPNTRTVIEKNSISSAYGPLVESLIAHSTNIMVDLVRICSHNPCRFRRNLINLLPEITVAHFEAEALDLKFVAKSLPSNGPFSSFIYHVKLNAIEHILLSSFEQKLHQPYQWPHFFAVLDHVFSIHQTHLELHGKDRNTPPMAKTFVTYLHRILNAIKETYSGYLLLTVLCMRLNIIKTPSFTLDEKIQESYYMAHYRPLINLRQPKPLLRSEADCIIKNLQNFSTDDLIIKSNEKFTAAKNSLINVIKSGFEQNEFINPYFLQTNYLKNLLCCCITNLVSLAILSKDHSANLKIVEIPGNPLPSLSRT
T1 sequence (O43080 4-72 partner limits assumed): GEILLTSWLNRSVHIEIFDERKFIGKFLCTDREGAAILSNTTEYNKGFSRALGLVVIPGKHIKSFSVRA
As to the kind of experiment: isothermal titration calorimetry. The format is binding.

The next assay has as its target T2, SpNatA (Schizosaccharomyces pombe, UniProt O74985+Q9UTI3).
T2 sequence (Q9UTI3 1-156): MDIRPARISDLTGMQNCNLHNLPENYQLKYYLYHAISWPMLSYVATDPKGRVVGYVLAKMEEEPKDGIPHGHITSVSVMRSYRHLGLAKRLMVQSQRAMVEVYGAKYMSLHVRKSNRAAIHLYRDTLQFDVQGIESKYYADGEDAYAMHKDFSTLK
T2 sequence (O74985 1-729): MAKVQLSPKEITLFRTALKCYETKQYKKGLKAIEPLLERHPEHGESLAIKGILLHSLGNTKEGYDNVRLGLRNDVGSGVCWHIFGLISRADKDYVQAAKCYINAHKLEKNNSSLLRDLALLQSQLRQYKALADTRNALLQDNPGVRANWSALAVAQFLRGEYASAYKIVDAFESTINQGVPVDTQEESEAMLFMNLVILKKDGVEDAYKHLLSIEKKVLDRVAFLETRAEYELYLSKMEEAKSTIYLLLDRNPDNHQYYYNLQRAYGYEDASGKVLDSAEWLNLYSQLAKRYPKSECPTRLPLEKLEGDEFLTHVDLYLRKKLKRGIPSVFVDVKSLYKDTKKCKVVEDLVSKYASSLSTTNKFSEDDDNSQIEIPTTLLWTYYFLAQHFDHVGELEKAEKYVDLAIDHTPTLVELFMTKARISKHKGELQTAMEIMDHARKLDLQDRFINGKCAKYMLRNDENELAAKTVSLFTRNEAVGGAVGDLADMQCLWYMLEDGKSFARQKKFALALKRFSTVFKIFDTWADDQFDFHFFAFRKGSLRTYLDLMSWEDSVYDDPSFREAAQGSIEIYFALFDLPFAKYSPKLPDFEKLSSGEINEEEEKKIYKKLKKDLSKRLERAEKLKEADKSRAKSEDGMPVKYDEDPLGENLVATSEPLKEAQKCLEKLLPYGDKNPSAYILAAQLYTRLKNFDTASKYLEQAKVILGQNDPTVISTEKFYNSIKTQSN
As to the kind of experiment: […] acetyltransferase assay with and without IP6. The format is biochemical. Conditions: 2 μM IP6, 50 μM Ac-CoA, 50 μM SASE peptide, pH 7.0, room temperature.

For the next assay, the target named is hNatB (Homo sapiens, UniProt P61599). The assay is described as follows: […] acetyltransferase assay with and without IP6. The format is biochemical. Conditions: 2 μM IP6, 50 μM Ac-CoA, 50 μM MDVF peptide, pH 7.0, room temperature.
hNatB, sequence (P61599 1-163): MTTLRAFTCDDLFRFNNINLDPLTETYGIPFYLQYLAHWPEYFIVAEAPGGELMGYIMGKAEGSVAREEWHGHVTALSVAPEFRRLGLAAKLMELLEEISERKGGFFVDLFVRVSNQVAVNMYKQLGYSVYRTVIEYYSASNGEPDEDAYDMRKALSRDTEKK
hNatB, sequence (Q14CX7 whole entry partner): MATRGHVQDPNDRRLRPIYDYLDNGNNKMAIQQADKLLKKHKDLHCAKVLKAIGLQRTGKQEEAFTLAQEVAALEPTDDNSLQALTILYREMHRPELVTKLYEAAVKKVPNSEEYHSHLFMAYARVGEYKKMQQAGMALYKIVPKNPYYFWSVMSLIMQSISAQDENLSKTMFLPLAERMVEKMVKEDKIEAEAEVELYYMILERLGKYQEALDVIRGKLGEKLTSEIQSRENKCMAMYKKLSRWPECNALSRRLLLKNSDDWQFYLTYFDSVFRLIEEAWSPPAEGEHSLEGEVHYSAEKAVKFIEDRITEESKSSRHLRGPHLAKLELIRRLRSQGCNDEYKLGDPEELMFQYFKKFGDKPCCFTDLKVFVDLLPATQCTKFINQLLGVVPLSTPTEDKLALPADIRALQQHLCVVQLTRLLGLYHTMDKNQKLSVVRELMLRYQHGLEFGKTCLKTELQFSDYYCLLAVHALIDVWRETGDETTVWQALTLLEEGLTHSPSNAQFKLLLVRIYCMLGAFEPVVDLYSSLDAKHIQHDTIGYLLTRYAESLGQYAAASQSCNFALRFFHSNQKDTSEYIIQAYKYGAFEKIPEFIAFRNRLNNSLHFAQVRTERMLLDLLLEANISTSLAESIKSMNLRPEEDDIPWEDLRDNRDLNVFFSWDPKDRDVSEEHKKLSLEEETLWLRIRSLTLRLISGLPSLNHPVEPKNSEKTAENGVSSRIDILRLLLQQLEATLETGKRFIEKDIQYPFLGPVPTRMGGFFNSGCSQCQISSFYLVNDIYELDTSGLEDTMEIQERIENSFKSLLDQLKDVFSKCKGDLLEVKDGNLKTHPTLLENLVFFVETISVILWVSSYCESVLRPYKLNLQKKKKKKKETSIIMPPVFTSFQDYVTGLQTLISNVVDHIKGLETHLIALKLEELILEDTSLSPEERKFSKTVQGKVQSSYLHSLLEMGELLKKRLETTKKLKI

Regarding `O=P(O)(O)O[C@H]1[C@H](OP(=O)(O)O)[C@@H](OP(=O)(O)O)[C@H](OP(=O)(O)O)[C@@H](OP(=O)(O)O)[C@H]1OP(=O)(O)O` [IP6, inositol hexaphosphate], on ternary SpNatC, the dissociation constant Kd (usually the equilibrium constant for the complex coming apart) is around 225 nM. Further, the “modest inhibition at 2 μM” value is “produced a relatively modest inhibitory effect, as it also did for SpNatA and hNatB” on SpNatA; “produced a relatively modest inhibitory effect, as it also did for SpNatA and hNatB” at hNatB.
